Measurements as given in ChEMBL document CHEMBL4145625 (J Med Chem, 2018).
pIC50: −log10 of the molar value.

Legend:
in vivo [1] = settings: ICR, mouse, plasma, po, 30 mg/kg
in vivo [2] = settings: ICR, mouse, plasma, po, 30 mg/kg; remark: listed apart in the source
Cytochrome P450 2C9 = Cytochrome P450 2C9 (Homo sapiens, UniProt P11712)
Description: Inhibition of CYP2C9 in human liver microsomes assessed as reduction in 4-Hydroxydiclofenac formation using diclofenac as substrate after 10 to 20 mins in presence of NADPH by LC-MS/MS analysis

in vivo [3] = settings: ICR, mouse, plasma, iv, 3 mg/kg
Description: Clearance in ICR mouse plasma at 3 mg/kg, iv by LC/MS/MS analysis

in vivo [4] = settings: ICR, mouse, plasma, po, 30 mg/kg; remark: listed apart in the source
A549 = assay: cells; format: functional, cell-based; settings: Homo sapiens, A549, 96 h
Description: Cytotoxicity against human A549 cells after 96 hrs by MTT assay

U-251 = assay: cells; format: functional, cell-based; settings: Homo sapiens, U-251, 96 h
Description: Cytotoxicity against human U251 cells after 96 hrs by MTT assay

in vivo [5] = settings: ICR, mouse, plasma, iv, 3 mg/kg; remark: listed apart in the source
Description: Half life in ICR mouse plasma at 3 mg/kg, iv by LC/MS/MS analysis

[6] = molecular target: Phosphatidylinositol 4,5-bisphosphate 3-kinase catalytic subunit beta isoform (Homo sapiens, UniProt P42338); assay: Inhibition of PI3Kbeta (unknown origin) using PIP2 as substrate by ADP-Glo assay
Chain of Phosphatidylinositol 4,5-bisphosphate 3-kinase catalytic subunit beta isoform (P42338 whole entry, canonical isoform): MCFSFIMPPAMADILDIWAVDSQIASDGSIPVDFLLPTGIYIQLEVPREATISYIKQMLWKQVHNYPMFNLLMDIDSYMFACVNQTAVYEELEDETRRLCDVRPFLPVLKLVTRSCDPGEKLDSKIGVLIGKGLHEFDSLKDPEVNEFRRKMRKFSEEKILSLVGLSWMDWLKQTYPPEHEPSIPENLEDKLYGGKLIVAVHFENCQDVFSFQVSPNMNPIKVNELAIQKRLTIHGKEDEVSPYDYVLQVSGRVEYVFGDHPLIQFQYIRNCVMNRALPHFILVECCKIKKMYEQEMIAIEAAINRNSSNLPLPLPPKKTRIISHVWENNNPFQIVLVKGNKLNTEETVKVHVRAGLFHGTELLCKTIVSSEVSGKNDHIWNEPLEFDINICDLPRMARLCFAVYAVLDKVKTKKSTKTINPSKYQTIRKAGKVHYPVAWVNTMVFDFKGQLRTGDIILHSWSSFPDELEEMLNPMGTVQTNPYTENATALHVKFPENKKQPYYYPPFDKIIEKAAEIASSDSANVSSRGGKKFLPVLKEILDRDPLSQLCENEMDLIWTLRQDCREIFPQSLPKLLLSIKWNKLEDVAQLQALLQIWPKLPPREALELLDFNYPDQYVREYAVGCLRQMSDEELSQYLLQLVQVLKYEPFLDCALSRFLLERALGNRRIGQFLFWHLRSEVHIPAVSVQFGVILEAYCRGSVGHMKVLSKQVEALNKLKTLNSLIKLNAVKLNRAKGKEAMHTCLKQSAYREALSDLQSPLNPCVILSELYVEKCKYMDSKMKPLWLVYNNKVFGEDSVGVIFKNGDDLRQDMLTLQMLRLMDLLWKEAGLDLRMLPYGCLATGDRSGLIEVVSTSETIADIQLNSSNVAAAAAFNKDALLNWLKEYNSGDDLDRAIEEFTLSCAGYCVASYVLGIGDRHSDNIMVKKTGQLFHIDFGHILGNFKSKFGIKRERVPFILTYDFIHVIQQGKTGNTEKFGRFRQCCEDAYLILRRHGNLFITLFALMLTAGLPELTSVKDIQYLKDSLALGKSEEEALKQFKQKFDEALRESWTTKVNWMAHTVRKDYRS

in vivo [7] = settings: ICR, mouse, plasma, po, 30 mg/kg; remark: listed apart in the source
in vivo [8] = settings: ICR, mouse, plasma, iv, 3 mg/kg; remark: listed apart in the source
[9] = molecular target: T1, Phosphatidylinositol 4,5-bisphosphate 3-kinase catalytic subunit delta isoform (Homo sapiens, UniProt O00329); assay: Inhibition of PI3Kdelta (unknown origin) using PIP2 as substrate by ADP-Glo assay
T1 sequence (O00329 whole entry): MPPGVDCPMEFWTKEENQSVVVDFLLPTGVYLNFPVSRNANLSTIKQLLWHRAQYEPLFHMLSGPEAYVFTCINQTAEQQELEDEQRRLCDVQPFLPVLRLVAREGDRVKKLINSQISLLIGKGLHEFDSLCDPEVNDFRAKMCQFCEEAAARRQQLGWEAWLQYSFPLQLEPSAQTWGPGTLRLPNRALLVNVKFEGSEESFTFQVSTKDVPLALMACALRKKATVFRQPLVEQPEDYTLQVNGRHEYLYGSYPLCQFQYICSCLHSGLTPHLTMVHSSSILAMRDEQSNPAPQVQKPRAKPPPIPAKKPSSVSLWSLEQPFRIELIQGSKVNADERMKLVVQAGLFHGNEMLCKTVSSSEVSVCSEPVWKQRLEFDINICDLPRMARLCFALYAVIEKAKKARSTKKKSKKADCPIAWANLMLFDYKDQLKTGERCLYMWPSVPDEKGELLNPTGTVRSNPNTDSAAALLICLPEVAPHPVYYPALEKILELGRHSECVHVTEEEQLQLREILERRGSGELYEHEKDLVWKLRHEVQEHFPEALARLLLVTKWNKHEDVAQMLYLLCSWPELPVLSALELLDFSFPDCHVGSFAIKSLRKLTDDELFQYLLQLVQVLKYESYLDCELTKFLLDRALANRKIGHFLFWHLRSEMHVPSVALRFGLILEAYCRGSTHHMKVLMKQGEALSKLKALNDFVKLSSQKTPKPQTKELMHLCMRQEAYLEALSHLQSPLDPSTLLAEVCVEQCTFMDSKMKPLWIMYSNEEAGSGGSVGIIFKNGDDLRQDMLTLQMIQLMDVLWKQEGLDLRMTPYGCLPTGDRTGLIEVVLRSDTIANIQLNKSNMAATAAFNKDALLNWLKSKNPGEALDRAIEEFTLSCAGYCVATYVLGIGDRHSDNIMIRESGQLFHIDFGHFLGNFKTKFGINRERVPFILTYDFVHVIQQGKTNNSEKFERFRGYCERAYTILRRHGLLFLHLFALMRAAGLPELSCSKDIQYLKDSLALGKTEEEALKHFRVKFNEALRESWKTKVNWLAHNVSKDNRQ

MDA-MB-231 = assay: cells; format: functional, cell-based; settings: Homo sapiens, MDA-MB-231, 96 h
Description: Cytotoxicity against human MDA-MB-231 cells after 96 hrs by MTT assay

[10] = molecular target: RAC-alpha serine/threonine-protein kinase (Homo sapiens, UniProt P31749); assay: Inhibition of AKT1 (unknown origin) using FAM-labeled peptide as substrate by mobility shift assay
Chain of RAC-alpha serine/threonine-protein kinase (P31749 whole entry): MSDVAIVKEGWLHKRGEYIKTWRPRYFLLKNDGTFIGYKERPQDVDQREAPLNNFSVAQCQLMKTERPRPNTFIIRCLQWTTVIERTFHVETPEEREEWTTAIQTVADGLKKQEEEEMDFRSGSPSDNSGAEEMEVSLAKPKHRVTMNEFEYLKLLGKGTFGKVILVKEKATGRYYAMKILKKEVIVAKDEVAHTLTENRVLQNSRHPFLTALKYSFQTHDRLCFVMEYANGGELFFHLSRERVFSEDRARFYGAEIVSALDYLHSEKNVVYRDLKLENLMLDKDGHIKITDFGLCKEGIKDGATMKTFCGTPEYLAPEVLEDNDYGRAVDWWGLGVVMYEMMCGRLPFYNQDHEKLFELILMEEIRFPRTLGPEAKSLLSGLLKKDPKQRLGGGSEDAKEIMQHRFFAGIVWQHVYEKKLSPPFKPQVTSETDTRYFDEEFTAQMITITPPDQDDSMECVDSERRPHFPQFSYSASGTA

Cytochrome P450 3A4 = Cytochrome P450 3A4 (Homo sapiens, UniProt P08684)
Description: Inhibition of CYP3A4 in human liver microsomes assessed as reduction in 1-Hydroxymidazolam formation using midazolam as substrate after 10 to 20 mins in presence of NADPH by LC-MS/MS analysis

[11] = molecular target: Serine/threonine-protein kinase mTOR (Homo sapiens, UniProt P42345); assay: Inhibition of mTOR (unknown origin) using ULight-4E-BP1 peptide as substrate after 30 mins by Lance Ultra assay
in vivo [12] = settings: ICR, mouse, plasma, iv, 3 mg/kg; remark: listed apart in the source
in vivo [13] = settings: ICR, mouse, po
Description: Toxicity in po dosed ICR mouse administered as single dose via oral gavage measured after 14 days

Cytochrome P450 2E1 = Cytochrome P450 2E1 (Homo sapiens, UniProt P05181)
Chain of Cytochrome P450 2E1 (P05181 whole entry): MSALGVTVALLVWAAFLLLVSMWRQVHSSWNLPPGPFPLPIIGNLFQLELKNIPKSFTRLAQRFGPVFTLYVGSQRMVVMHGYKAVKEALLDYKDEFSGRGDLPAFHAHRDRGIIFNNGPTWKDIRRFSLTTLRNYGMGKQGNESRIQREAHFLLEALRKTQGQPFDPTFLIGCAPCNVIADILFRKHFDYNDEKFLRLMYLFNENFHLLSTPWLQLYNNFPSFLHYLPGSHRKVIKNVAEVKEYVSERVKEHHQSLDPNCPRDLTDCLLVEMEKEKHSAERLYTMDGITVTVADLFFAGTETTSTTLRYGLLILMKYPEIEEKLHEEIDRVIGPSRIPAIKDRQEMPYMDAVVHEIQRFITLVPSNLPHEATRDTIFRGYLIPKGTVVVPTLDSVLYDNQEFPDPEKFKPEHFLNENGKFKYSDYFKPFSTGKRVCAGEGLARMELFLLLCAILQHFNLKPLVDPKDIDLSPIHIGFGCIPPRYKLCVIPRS
Description: Inhibition of CYP2E1 in human liver microsomes assessed as reduction in 6-Hydroxychlorzoxazone formation using chlorzoxazone as substrate after 10 to 20 mins in presence of NADPH by LC-MS/MS analysis

[14] = mouse, in vivo, po, 30 mg/kg
PC-3 = assay: cells; format: functional, cell-based; settings: Homo sapiens, PC-3, 96 h
Description: Cytotoxicity against human PC3 cells after 96 hrs by MTT assay

in vivo [15] = settings: ICR, mouse, plasma, iv, 3 mg/kg; remark: listed apart in the source
SH-SY5Y = assay: cells; format: functional, cell-based; settings: Homo sapiens, 96 h
Description: Cytotoxicity against human SH-SY5Y cells after 96 hrs by MTT assay

in vivo [16] = settings: ICR, mouse, plasma, iv, 3 mg/kg; remark: listed apart in the source
in vivo [17] = settings: ICR, mouse, plasma, iv, 3 mg/kg; remark: listed apart in the source
Description: Volume of distribution at steady state in ICR mouse plasma at 3 mg/kg, iv by LC/MS/MS analysis

Cytochrome P450 2D6 = Cytochrome P450 2D6 (Homo sapiens, UniProt P10635)
Chain of Cytochrome P450 2D6 (P10635 whole entry): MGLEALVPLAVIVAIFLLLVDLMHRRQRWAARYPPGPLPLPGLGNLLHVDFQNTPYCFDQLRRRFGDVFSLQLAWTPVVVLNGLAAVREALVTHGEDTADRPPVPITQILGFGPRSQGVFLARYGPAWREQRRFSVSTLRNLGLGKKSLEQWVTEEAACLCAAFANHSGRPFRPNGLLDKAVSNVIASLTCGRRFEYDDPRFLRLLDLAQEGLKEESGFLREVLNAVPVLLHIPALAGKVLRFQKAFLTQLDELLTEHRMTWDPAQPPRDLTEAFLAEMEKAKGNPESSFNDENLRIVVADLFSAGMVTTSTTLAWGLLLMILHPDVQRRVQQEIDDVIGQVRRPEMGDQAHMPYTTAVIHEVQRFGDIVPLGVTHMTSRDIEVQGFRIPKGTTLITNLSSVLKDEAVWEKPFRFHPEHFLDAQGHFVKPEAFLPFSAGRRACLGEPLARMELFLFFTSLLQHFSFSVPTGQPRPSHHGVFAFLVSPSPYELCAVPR
Description: Inhibition of CYP2D6 in human liver microsomes assessed as reduction in dextrophan formation using detromethorphann as substrate after 10 to 20 mins in presence of NADPH by LC-MS/MS analysis

U-87 MG = assay: cells; format: functional, cell-based, U-87MG ATCC; settings: Homo sapiens, 96 h
Description: Cytotoxicity against human U87MG cells after 96 hrs by MTT assay

HGC-27 = assay: cells; format: functional, cell-based; settings: Homo sapiens, HGC-27, 96 h
Description: Cytotoxicity against human HGC27 cells after 96 hrs by MTT assay

Cytochrome P450 2C19 = Cytochrome P450 2C19 (Homo sapiens, UniProt P33261)
Chain of Cytochrome P450 2C19 (P33261 whole entry): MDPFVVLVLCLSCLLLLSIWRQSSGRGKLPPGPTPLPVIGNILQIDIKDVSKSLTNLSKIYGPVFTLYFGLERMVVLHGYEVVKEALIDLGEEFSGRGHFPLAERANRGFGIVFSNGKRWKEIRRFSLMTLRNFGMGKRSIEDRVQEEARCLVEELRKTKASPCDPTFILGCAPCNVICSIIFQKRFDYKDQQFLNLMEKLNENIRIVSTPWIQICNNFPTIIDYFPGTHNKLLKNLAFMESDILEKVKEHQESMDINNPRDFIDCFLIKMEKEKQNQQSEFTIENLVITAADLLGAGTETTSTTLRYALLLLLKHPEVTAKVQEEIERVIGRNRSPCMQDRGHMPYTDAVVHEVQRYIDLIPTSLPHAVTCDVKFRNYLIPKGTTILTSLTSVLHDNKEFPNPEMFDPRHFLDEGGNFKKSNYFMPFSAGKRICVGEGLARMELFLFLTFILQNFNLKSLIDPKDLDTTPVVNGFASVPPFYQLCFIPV
Description: Inhibition of CYP2C19 in human liver microsomes assessed as reduction in 4-Hydroxymephenytoinn formation using mephenytoin as substrate after 10 to 20 mins in presence of NADPH by LC-MS/MS analysis

in vivo [18] = settings: ICR, mouse, plasma, po, 30 mg/kg; remark: listed apart in the source
DU-145 = assay: cells; format: functional, cell-based; settings: Homo sapiens, DU-145, 96 h
Description: Cytotoxicity against human DU145 cells after 96 hrs by MTT assay

[19] = molecular target: Phosphatidylinositol 4,5-bisphosphate 3-kinase catalytic subunit alpha isoform (Homo sapiens, UniProt P42336); assay: Inhibition of PI3Kalpha (unknown origin) using PIP2 as substrate by Kinase-Glo assay
Chain of Phosphatidylinositol 4,5-bisphosphate 3-kinase catalytic subunit alpha isoform (P42336 whole entry, canonical isoform): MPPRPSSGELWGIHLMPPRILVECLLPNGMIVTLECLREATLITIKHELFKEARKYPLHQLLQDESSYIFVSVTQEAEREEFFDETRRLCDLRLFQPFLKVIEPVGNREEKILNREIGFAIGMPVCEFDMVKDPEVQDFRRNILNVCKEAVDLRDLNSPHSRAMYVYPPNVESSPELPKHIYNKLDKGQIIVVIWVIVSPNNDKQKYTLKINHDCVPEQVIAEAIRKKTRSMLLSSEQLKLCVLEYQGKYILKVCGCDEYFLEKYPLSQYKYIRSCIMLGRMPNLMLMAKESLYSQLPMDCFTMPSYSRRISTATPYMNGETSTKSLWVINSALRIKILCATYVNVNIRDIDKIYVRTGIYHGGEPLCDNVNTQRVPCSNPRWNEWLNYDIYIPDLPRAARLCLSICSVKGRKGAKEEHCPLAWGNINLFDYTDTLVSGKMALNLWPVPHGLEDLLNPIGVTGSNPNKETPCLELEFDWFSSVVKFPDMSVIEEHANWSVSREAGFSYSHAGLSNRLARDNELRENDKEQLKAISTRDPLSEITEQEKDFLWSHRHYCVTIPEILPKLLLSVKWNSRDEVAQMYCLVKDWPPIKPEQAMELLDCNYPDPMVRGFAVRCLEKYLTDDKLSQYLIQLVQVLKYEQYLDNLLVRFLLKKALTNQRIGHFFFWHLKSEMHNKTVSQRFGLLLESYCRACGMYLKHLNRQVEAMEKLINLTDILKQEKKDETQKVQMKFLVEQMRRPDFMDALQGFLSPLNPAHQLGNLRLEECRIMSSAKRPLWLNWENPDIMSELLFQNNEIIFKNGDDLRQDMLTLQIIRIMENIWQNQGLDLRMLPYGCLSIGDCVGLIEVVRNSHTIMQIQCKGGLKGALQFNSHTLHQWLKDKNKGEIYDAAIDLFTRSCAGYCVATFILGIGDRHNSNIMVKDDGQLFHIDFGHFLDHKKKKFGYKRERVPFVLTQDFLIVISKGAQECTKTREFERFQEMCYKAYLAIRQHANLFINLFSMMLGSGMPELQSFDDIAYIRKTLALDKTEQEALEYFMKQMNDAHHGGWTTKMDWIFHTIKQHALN

in vivo [20] = settings: ICR, mouse, plasma, po, 30 mg/kg; remark: listed apart in the source
Description: Half life in ICR mouse plasma at 30 mg/kg, po by LC/MS/MS analysis

Chain of Cytochrome P450 2C9 (P11712 whole entry): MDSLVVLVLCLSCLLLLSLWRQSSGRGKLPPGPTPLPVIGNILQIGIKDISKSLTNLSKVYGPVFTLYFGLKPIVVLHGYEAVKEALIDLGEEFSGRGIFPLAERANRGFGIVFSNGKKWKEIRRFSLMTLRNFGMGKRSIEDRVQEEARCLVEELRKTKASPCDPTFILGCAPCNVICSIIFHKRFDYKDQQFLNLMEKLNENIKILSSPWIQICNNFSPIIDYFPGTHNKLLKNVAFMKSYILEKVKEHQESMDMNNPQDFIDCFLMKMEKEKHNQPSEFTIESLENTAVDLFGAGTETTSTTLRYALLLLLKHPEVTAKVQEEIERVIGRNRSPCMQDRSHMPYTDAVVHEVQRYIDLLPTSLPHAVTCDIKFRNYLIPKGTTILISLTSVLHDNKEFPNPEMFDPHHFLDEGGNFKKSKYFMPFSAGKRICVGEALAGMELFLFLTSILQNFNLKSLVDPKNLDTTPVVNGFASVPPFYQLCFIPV

`CNc1nc(C)c2cc(-c3cnc(OC)c(NS(=O)(=O)c4ccc(F)cc4F)c3)cc(O[C@@H]3CCOC3)c2n1` showed an AUC(0-t) (in vivo [1]) of 11400 ng·h/mL, an AUC(0-inf) (in vivo [2]) of 17100 ng·h/mL and a pIC50 (Cytochrome P450 2C9) of less than 5.00. The clearance (in vivo [3]) was 34.5 mL/min/kg, the bioavailability (in vivo [4]) was 78.4% and the pIC50 (A549) was 6.92. For the same compound, the pIC50 (U-251) was 6.34, the half-life (in vivo [5]) was 31.8 min and the pIC50 [6] was 8.96. It also gave a Cmax (in vivo [7]) of 5390 ng/mL, an AUC(0-inf) (in vivo [8]) of 1460 ng·h/mL and a pIC50 [9] of 9.43. The pIC50 (MDA-MB-231) was 6.32, the pIC50 [10] was less than 5.00 and the pIC50 (Cytochrome P450 3A4) was less than 5.00. It also gave a pIC50 [11] of 7.25, an AUC(0-t) (in vivo [12]) of 1450 ng·h/mL and an MTD at 336 h (in vivo [13]) greater than 40 mg/kg. For the same compound, the pIC50 (Cytochrome P450 2E1) was less than 5.00, the AUCt [14] was 742 ng·h/g and the pIC50 (PC-3) was 6.62. For the same compound, the Tmax (in vivo [15]) was 1.8 min, the pIC50 (SH-SY5Y) was 5.89 and the Cmax (in vivo [16]) was 2620 ng/mL. It also gave a Vd (in vivo [17]) of 1.56 L/kg, a pIC50 (Cytochrome P450 2D6) of less than 5.00 and a pIC50 (U-87 MG) of 6.40. It also gave a pIC50 (HGC-27) of 7.57, a pIC50 (Cytochrome P450 2C19) of less than 5.00 and a Tmax (in vivo [18]) of 15 min. For the same compound, the pIC50 (DU-145) was 5.19, the pIC50 [19] was 9.02 and the half-life (in vivo [20]) was 972 min.
Compound `COc1ncc(-c2cc(O[C@@H]3CCOC3)c3nc(N)nc(C)c3c2)cc1NS(=O)(=O)c1ccc(F)cc1F` has an AUC(0-t) (in vivo [1]) of 8690 ng·h/mL, an AUC(0-inf) (in vivo [2]) of 9040 ng·h/mL and a pIC50 (Cytochrome P450 2C9) of less than 5.00. For the same compound, the clearance (in vivo [3]) was 54.9 mL/min/kg, the bioavailability (in vivo [4]) was 96.2% and the pIC50 (A549) was 7.08. For the same compound, the pIC50 (U-251) was 6.85, the half-life (in vivo [5]) was 32.4 min and the pIC50 [6] was 9.40. It also gave a Cmax (in vivo [7]) of 8830 ng/mL, an AUC(0-inf) (in vivo [8]) of 911 ng·h/mL and a pIC50 [9] of 9.64. For the same compound, the pIC50 (MDA-MB-231) was 6.52, the pIC50 [10] was less than 5.00 and the pIC50 (Cytochrome P450 3A4) was less than 5.00. For the same compound, the pIC50 [11] was 8.00, the AUC(0-t) (in vivo [12]) was 904 ng·h/mL and the MTD at 336 h (in vivo [13]) was greater than 50 mg/kg. For the same compound, the pIC50 (Cytochrome P450 2E1) was less than 5.00, the AUCt [14] was 28.6 ng·h/g and the pIC50 (PC-3) was 6.55. The Tmax (in vivo [15]) was 1.8 min, the pIC50 (SH-SY5Y) was 6.02 and the Cmax (in vivo [16]) was 1580 ng/mL. For the same compound, the Vd (in vivo [17]) was 2.57 L/kg, the pIC50 (Cytochrome P450 2D6) was less than 5.00 and the pIC50 (U-87 MG) was 6.59. It also gave a pIC50 (HGC-27) of 7.25, a pIC50 (Cytochrome P450 2C19) of less than 5.00 and a Tmax (in vivo [18]) of 4.8 min. The pIC50 (DU-145) was 5.68, the pIC50 [19] was 9.00 and the half-life (in vivo [20]) was 281 min.
`CNc1nc(C)c2cc(-c3cnc(OC)c(NS(=O)(=O)c4ccc(F)cc4F)c3)cc(OC3CCOCC3)c2n1` gave an AUC(0-t) (in vivo [1]) of 15500 ng·h/mL, an AUC(0-inf) (in vivo [2]) of 16100 ng·h/mL and a pIC50 (Cytochrome P450 2C9) of less than 5.00. It also gave a clearance (in vivo [3]) of 14.3 mL/min/kg, a bioavailability (in vivo [4]) of 44.4% and a pIC50 (A549) of 6.96. It also gave a pIC50 (U-251) of 6.15, a half-life (in vivo [5]) of 37.2 min and a pIC50 [6] of 8.92. For the same compound, the Cmax (in vivo [7]) was 12800 ng/mL, the AUC(0-inf) (in vivo [8]) was 3500 ng·h/mL and the pIC50 [9] was 9.46. For the same compound, the pIC50 (MDA-MB-231) was 6.59, the pIC50 [10] was less than 5.00 and the pIC50 (Cytochrome P450 3A4) was less than 5.00. The pIC50 [11] was 7.37, the AUC(0-t) (in vivo [12]) was 3480 ng·h/mL and the MTD at 336 h (in vivo [13]) was greater than 40 mg/kg. For the same compound, the pIC50 (Cytochrome P450 2E1) was less than 5.00, the AUCt [14] was 895 ng·h/g and the pIC50 (PC-3) was 6.42. For the same compound, the Tmax (in vivo [15]) was 3 min, the pIC50 (SH-SY5Y) was 6.29 and the Cmax (in vivo [16]) was 7720 ng/mL. It also gave a Vd (in vivo [17]) of 0.763 L/kg, a pIC50 (Cytochrome P450 2D6) of less than 5.00 and a pIC50 (U-87 MG) of 6.60. For the same compound, the pIC50 (HGC-27) was 7.80, the pIC50 (Cytochrome P450 2C19) was less than 5.00 and the Tmax (in vivo [18]) was 10.8 min. The pIC50 (DU-145) was 5.28, the pIC50 [19] was 8.85 and the half-life (in vivo [20]) was 255 min.
